Source: US11306095B2 (EAST CHINA UNIVERSITY OF SCIENCE AND TECHNOLOGY, priority 2015, dated 2022)
≈ marks a conversion by molar mass, not a printed value.

Key:
EGFR-L858R/T790M = molecular target: T1, EGFR-L858R/T790M (Homo sapiens, UniProt P00533, L858R/T790M); test: Kinase activity test (FRET), EGFR T790M/L858R; format: biochemical; settings: EGFR T790M/L858R; read-out: Inhibitory activity of EGFR on kinase (IC50, nM) T790M/L858R
T1 construct: purchased Invitrogen PV4879
In short: (§1)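 FRET assay with coumarin/fluorescein-labelled poly(Glu, Tyr)4:1 peptide and ATP, compounds at 5.1×10^−11 to 1.0×10^−6 mol/L final. Kinase reaction 1.5 h at room temperature, then 1 h development cleaving unphosphorylated peptide.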

[1] = tested on: H1975 cells (EGFR L858R/T790M); test: Inhibitory activity on cell proliferation, H1975; format: cell-based; settings: Homo sapiens, NCI-H1975; H1975, 72 hours; read-out: Inhibitory activity on proliferation of cells (IC50, μM) H1975
Wild type EGFR = molecular target: T2, Wild type EGFR (Homo sapiens, UniProt P00533); test: Kinase activity test (FRET), wild type EGFR; format: biochemical; settings: wild type EGFR; read-out: Inhibitory activity of EGFR on kinase (IC50, nM) WT
T2 construct: purchased Invitrogen PV3872
T2 sequence (P00533 25-1210): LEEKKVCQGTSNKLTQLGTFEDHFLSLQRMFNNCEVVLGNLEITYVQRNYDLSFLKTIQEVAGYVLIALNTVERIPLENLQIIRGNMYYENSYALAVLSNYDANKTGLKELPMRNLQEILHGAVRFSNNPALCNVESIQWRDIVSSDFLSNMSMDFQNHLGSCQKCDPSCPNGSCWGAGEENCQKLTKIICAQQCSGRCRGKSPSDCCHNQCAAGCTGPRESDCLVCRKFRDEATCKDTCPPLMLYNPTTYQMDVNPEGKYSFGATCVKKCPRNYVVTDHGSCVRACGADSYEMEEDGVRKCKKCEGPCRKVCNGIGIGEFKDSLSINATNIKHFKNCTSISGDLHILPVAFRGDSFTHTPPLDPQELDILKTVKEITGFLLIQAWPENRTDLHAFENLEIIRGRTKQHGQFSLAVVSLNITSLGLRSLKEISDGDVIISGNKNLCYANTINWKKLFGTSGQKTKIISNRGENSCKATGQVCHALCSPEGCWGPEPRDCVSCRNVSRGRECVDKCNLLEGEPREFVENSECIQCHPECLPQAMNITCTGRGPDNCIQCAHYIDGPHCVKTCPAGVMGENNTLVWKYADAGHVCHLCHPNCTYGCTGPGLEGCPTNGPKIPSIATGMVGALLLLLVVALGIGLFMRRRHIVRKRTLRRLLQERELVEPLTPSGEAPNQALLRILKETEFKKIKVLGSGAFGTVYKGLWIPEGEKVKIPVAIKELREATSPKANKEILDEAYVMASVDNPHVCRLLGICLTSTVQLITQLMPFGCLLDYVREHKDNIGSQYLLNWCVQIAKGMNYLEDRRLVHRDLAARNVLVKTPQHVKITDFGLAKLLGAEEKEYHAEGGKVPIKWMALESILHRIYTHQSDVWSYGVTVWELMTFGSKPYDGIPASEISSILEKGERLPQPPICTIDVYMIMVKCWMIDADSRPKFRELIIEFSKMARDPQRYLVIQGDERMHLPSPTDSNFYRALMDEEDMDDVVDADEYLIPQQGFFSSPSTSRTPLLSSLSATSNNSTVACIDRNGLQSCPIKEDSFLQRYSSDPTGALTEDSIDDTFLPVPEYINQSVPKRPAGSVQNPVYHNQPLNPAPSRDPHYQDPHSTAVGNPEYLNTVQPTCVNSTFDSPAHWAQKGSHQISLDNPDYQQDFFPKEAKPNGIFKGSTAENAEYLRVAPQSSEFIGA
In short: as §1

[2] = tested on: A431 cells (EGFR wild type); test: Inhibitory activity on cell proliferation, A431; format: cell-based; settings: Homo sapiens, A-431; A431, 72 hours; read-out: Inhibitory activity on proliferation of cells (IC50, μM) A431
[3] = Determination of solubility in water (PBS 20 mM, pH 6.8); format: physicochemical; settings: PBS buffer, aqueous buffer, thermodynamic from solid; pH 6.8, 20 mM PBS; read-out: Solubility (pH 6.8, g/mL)
In short: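 Compound suspension filtered (0.22 μm PVDF), diluted in 50% methanol/50% PBS, absorbance read by UV spectrophotometry. Solubility calculated from a standard curve of 0.01–0.05 mg/mL methanol-derived solutions (r > 0.998).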

T1 sequence (P00533 25-1210 T790M/L858R): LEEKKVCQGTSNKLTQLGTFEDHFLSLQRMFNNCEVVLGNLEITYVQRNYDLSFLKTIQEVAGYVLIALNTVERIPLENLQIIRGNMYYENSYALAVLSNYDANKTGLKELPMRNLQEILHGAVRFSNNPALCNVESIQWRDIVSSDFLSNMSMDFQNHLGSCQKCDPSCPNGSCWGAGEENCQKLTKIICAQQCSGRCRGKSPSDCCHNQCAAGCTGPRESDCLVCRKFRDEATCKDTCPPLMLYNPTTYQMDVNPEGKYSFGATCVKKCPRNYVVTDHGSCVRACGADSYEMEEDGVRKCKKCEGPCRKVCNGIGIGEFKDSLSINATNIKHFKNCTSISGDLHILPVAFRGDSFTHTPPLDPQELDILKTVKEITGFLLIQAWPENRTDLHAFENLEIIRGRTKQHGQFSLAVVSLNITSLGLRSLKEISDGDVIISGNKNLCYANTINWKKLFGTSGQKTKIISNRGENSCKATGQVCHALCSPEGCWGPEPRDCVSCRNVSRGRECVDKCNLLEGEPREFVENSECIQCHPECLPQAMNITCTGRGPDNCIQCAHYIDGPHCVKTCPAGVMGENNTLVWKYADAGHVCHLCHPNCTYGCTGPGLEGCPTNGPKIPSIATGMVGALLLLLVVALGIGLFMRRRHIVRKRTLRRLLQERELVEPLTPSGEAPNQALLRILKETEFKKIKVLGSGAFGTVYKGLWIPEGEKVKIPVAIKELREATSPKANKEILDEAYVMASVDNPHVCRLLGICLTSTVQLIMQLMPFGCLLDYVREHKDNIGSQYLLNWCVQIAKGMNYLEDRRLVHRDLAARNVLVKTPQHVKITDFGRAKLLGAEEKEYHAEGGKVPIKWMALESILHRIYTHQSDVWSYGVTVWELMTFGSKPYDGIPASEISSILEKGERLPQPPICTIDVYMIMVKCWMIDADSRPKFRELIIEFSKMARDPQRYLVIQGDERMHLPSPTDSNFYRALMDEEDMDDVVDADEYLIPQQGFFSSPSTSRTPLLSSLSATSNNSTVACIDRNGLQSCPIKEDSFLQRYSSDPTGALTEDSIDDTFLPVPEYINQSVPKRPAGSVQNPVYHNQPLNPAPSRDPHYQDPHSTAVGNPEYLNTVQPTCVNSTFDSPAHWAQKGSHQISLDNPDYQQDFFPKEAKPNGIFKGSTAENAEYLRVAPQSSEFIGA

| Structure (SMILES) | IC50 (EGFR-L858R/T790M) | melting point | IC50 [1] | IC50 (Wild type EGFR) | IC50 [2] | solubility [3] |
| --- | --- | --- | --- | --- | --- | --- |
| C=CC(=O)Nc1cccc(-n2c(=O)c(-c3ccccc3)nc3cnc(Nc4cc(C)c(N5CCN(C)CC5)cc4OC)nc32)c1 [Compound 38, N-(3-(2-((2-methoxy-5-methyl-4-(4-methyl-1-piperazinyl)phenyl)amino)-7-oxo-6-phenyl-8(7H)pteridinonyl)phenyl)acrylamide] | 0.6 nM | 292.9 to 293.4 °C | 0.165 µM | 2.8 nM | 2.35 µM | < 10 µg/mL |
| C=CC(=O)Nc1cccc(-n2c(=O)c(C(C)C)nc3cnc(Nc4ccc(N5CCN(C)CC5)c(OC)c4)nc32)c1 [Compound 32, N-(3-(6-isopropyl-2-((3-methoxy-4-(4-methyl-1-piperazinyl)phenyl)amino)-7-oxo-8(7H)pteridinyl)phenyl)acrylamide] | 7.1 nM | 249 to 249.5 °C | 0.033 µM | 1.3 nM | 2.75 µM | < 10 µg/mL |
| C=CC(=O)Nc1cccc(-n2c(=O)c(-c3ccccc3)nc3cnc(Nc4ccc(N5CCC(N6CCN(C)CC6)CC5)cc4OC)nc32)c1 [Compound 48, N-(3-(2-((2-methoxy-4-(4-(4-methyl-1-piperazinyl)piperidinyl)phenyl)amino)-7-oxo-6-phenyl-8(7H)pteridinyl)phenyl)acrylamide] | 20.8 nM | > 300 °C | 0.031 µM | 362 nM | 0.64 µM | < 10 µg/mL |
| C=CC(=O)Nc1cccc(-n2c(=O)c(-c3ccc(OC)cc3)nc3cnc(Nc4ccc(N5CCN(C)CC5)cc4OC)nc32)c1 [Compound 54, N-(3-(2-((2-methoxy-4-(4-methyl-1-piperazinyl)phenyl)amino)-6-(4-methoxyphenyl)-7-oxo-8(7H)pteridinyl)phenyl)acrylamide] | 3.5 nM | 296.5 to 297.3 °C | 1.06 µM | 1.5 nM | 4.1 µM | < 10 µg/mL |
| C=CC(=O)Nc1cccc(-n2c(=O)c(C(F)(F)F)nc3cnc(Nc4ccc(N5CCN(C)CC5)c(OC)c4)nc32)c1 [Compound 33, N-(3-(2-((3-methoxy-4-(4-methyl-1-piperazinyl)phenyl)amino)-7-oxo-6-(trifluoromethyl)-8(7H)-pteridinyl)phenyl)acrylamide] | 1.3 nM | > 300 °C | 0.23 µM | 33 nM | 3.68 µM | 24.5 µg/mL (≈ 42.2 µM) |
| C=CC(=O)Nc1cccc(-n2c(=O)c(-c3cccc(OC)c3)nc3cnc(Nc4ccc(N5CCN(C)CC5)cc4OC)nc32)c1 [Compound 57, N-(3-(2-((2-methoxy-4-(4-methyl-1-piperazinyl)phenyl)amino)-6-(3-methoxyphenyl)-7-oxo-8(7H)pteridinyl)phenyl)acrylamide] | 1.8 nM | > 300 °C | 0.225 µM | 2.8 nM | 1.37 µM | < 10 µg/mL |
| COc1cc(N2CCN(C)CC2)ccc1Nc1ncc2ncc(=O)n(C3CCN(C(=O)/C=C/CN(C)C)CC3)c2n1 [Compound 30, (E)-8-(1-(4-(dimethylamino)-2-butenoyl)-4-piperidinyl)-2-((2-methoxy-4-(4-methyl-1-piperazinyl)phenyl)amino)-7(8H)pteridinone] | > 1000 nM | 157.3 to 157.6 °C | 8.69 µM | > 1000 nM | > 10 µM | > 10 µg/mL |
| COc1cc(N2CCN(C)CC2)ccc1Nc1ncc2nc(-c3ccccc3)c(=O)n([C@H]3CCN(C(=O)/C=C/CN(C)C)C3)c2n1 [Compound 31] | 9 nM | 253.1 to 254 °C | 2.16 µM | 522 nM | > 10 µM | 63.3 µg/mL (≈ 101 µM) |
